Measured values published in PubChem BioAssay AID1963874 (Molecular Pharmacology Branch, DTP, NCI, 2024).

Test system: 253994-281-T-J1-PDC KRAS-mutant spheroids with HUVEC/MSC, viability
Assay: Anticancer human tumor 253994-281-T-J1-PDC patient-derived colorectal carcinoma cell line growth inhibition [KRAS2]
Conditions: for IC50: curve of first compound; for viability, T/C: stronger effect = lower value
Method in brief: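 Combination screen of spheroid viability in tumor-cell co-cultures with endothelial (HUVEC) and mesenchymal stem cell stroma. Each agent was tested in half-log dilutions, topping at clinical Cmax or at 10 microM without a known Cmax.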

[1] = second compound 0.0316 µM, first compound 0.0316 µM
[2] = second compound 0.0316 µM, first compound 0.1 µM
[3] = second compound 0.0316 µM, first compound 0.316 µM
[4] = second compound 0.0316 µM, first compound 1 µM
[5] = second compound 0.0316 µM, first compound 3.16 µM
[6] = second compound 0.0316 µM, first compound 10 µM
[7] = second compound 0.1 µM, first compound 0.0316 µM
[8] = second compound 0.1 µM, first compound 0.1 µM
[9] = second compound 0.1 µM, first compound 0.316 µM
[10] = second compound 0.1 µM, first compound 1 µM
[11] = second compound 0.1 µM, first compound 3.16 µM
[12] = second compound 0.1 µM, first compound 10 µM
[13] = second compound 0.316 µM, first compound 0.0316 µM
[14] = second compound 0.316 µM, first compound 0.1 µM
[15] = second compound 0.316 µM, first compound 0.316 µM
[16] = second compound 0.316 µM, first compound 1 µM
[17] = second compound 0.316 µM, first compound 3.16 µM
[18] = second compound 0.316 µM, first compound 10 µM
[19] = second compound 1 µM, first compound 0.0316 µM
[20] = second compound 1 µM, first compound 0.1 µM
[21] = second compound 1 µM, first compound 0.316 µM
[22] = second compound 1 µM, first compound 1 µM
[23] = second compound 1 µM, first compound 3.16 µM
[24] = second compound 1 µM, first compound 10 µM
[25] = second compound 3.16 µM, first compound 0.0316 µM
[26] = second compound 3.16 µM, first compound 0.1 µM
[27] = second compound 3.16 µM, first compound 0.316 µM
[28] = second compound 3.16 µM, first compound 1 µM
[29] = second compound 3.16 µM, first compound 3.16 µM
[30] = second compound 3.16 µM, first compound 10 µM
[31] = second compound 0.0316 µM, first compound 0.00316 µM
[32] = second compound 0.0316 µM, first compound 0.01 µM
[33] = second compound 0.1 µM, first compound 0.00316 µM
[34] = second compound 0.1 µM, first compound 0.01 µM
[35] = second compound 0.316 µM, first compound 0.00316 µM
[36] = second compound 0.316 µM, first compound 0.01 µM
[37] = second compound 1 µM, first compound 0.00316 µM
[38] = second compound 1 µM, first compound 0.01 µM
[39] = second compound 3.16 µM, first compound 0.00316 µM
[40] = second compound 3.16 µM, first compound 0.01 µM
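Note: spheroids exposed to agents for seven days before readout.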
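Throughout, for viability, T/C: percent of DMSO vehicle control viability.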

CC(C)NCC(C(=O)N1CCN(c2ncnc3c2C(C)CC3O)CC1)c1ccc(Cl)cc1 (stereo not given) + C=CC(=O)N1CCN(c2nc(OCC3CCCN3C)nc3c2CCN(c2cccc4cccc(C)c24)C3)CC1CC#N
IC50 (second compound 0.0316 µM): > 10000 nM
IC50 (second compound 0.1 µM): > 10000 nM
IC50 (second compound 0.316 µM): > 10000 nM
IC50 (second compound 1 µM): > 10000 nM
IC50 (second compound 3.16 µM): < 31.6 nM
viability, T/C [1]: 104%
viability, T/C [2]: 105%
viability, T/C [3]: 99.7%
viability, T/C [4]: 94.7%
viability, T/C [5]: 96.3%
viability, T/C [6]: 92.7%
viability, T/C [7]: 101%
viability, T/C [8]: 98.8%
viability, T/C [9]: 105%
viability, T/C [10]: 91%
viability, T/C [11]: 94.5%
viability, T/C [12]: 100%
viability, T/C [13]: 84%
viability, T/C [14]: 94.2%
viability, T/C [15]: 92.8%
viability, T/C [16]: 84.9%
viability, T/C [17]: 77.8%
viability, T/C [18]: 85.2%
viability, T/C [19]: 85.6%
viability, T/C [20]: 101%
viability, T/C [21]: 95.1%
viability, T/C [22]: 90.3%
viability, T/C [23]: 93.6%
viability, T/C [24]: 88.7%
viability, T/C [25]: 2.67%
viability, T/C [26]: 11.2%
viability, T/C [27]: 14.7%
viability, T/C [28]: 12.3%
viability, T/C [29]: 4.04%
viability, T/C [30]: 0.49%

CC1(C)CCC(CN2CCN(c3ccc(C(=O)NS(=O)(=O)c4ccc(NCC5CCOCC5)c([N+](=O)[O-])c4)c(Oc4cnc5[nH]ccc5c4)c3)CC2)=C(c2ccc(Cl)cc2)C1 + C=CC(=O)N1CCN(c2nc(OCC3CCCN3C)nc3c2CCN(c2cccc4cccc(C)c24)C3)CC1CC#N
IC50 (second compound 0.0316 µM): > 10000 nM
IC50 (second compound 0.1 µM): 6520 nM
IC50 (second compound 0.316 µM): 8920 nM
IC50 (second compound 1 µM): 4900 nM
IC50 (second compound 3.16 µM): < 31.6 nM
viability, T/C [1]: 110%
viability, T/C [2]: 98.6%
viability, T/C [3]: 102%
viability, T/C [4]: 90.6%
viability, T/C [5]: 84.5%
viability, T/C [6]: 56.7%
viability, T/C [7]: 96.9%
viability, T/C [8]: 89%
viability, T/C [9]: 87.4%
viability, T/C [10]: 90.2%
viability, T/C [11]: 64.8%
viability, T/C [12]: 41.2%
viability, T/C [13]: 102%
viability, T/C [14]: 99.2%
viability, T/C [15]: 95.6%
viability, T/C [16]: 92.8%
viability, T/C [17]: 87.1%
viability, T/C [18]: 45.7%
viability, T/C [19]: 83.6%
viability, T/C [20]: 94.5%
viability, T/C [21]: 91.7%
viability, T/C [22]: 79.3%
viability, T/C [23]: 64.3%
viability, T/C [24]: 27.8%
viability, T/C [25]: 18.6%
viability, T/C [26]: 25.2%
viability, T/C [27]: 22%
viability, T/C [28]: 9.94%
viability, T/C [29]: 0.66%
viability, T/C [30]: 0.3%

CCN1CCN(Cc2ccc(Nc3ncc(F)c(-c4cc(F)c5nc(C)n(C(C)C)c5c4)n3)nc2)CC1 + C=CC(=O)N1CCN(c2nc(OCC3CCCN3C)nc3c2CCN(c2cccc4cccc(C)c24)C3)CC1CC#N
IC50 (second compound 0.0316 µM): > 1000 nM
IC50 (second compound 0.1 µM): 751 nM
IC50 (second compound 0.316 µM): > 1000 nM
IC50 (second compound 1 µM): 586 nM
IC50 (second compound 3.16 µM): 41.4 nM
viability, T/C [31]: 91.2%
viability, T/C [32]: 105%
viability, T/C [1]: 79.4%
viability, T/C [2]: 92.2%
viability, T/C [3]: 66.8%
viability, T/C [4]: 51.6%
viability, T/C [33]: 88.7%
viability, T/C [34]: 89.7%
viability, T/C [7]: 79.3%
viability, T/C [8]: 82.5%
viability, T/C [9]: 73.4%
viability, T/C [10]: 42.2%
viability, T/C [35]: 90.5%
viability, T/C [36]: 92.4%
viability, T/C [13]: 85%
viability, T/C [14]: 77.5%
viability, T/C [15]: 68%
viability, T/C [16]: 52.5%
viability, T/C [37]: 81.4%
viability, T/C [38]: 95.7%
viability, T/C [19]: 82.7%
viability, T/C [20]: 74.9%
viability, T/C [21]: 64.9%
viability, T/C [22]: 38%
viability, T/C [39]: 61.5%
viability, T/C [40]: 61.1%
viability, T/C [25]: 57%
viability, T/C [26]: 32.9%
viability, T/C [27]: 15.3%
viability, T/C [28]: 1.78%

Cn1ncnc1[C@H]1c2n[nH]c(=O)c3cc(F)cc(c23)N[C@@H]1c1ccc(F)cc1 + C=CC(=O)N1CCN(c2nc(OCC3CCCN3C)nc3c2CCN(c2cccc4cccc(C)c24)C3)CC1CC#N
IC50 (second compound 0.0316 µM): > 100 nM
IC50 (second compound 0.1 µM): > 100 nM
IC50 (second compound 0.316 µM): > 100 nM
IC50 (second compound 1 µM): > 100 nM
IC50 (second compound 3.16 µM): 0.431 nM
viability, T/C (second compound 0.0316 µM, first compound 0.000316 µM): 93.7%
viability, T/C (second compound 0.0316 µM, first compound 0.001 µM): 93.7%
viability, T/C [31]: 96.8%
viability, T/C [32]: 105%
viability, T/C [1]: 100%
viability, T/C [2]: 92.8%
viability, T/C (second compound 0.1 µM, first compound 0.000316 µM): 94.8%
viability, T/C (second compound 0.1 µM, first compound 0.001 µM): 93.1%
viability, T/C [33]: 96.7%
viability, T/C [34]: 86.8%
viability, T/C [7]: 97.2%
viability, T/C [8]: 92.8%
viability, T/C (second compound 0.316 µM, first compound 0.000316 µM): 95.8%
viability, T/C (second compound 0.316 µM, first compound 0.001 µM): 105%
viability, T/C [35]: 98.4%
viability, T/C [36]: 88.4%
viability, T/C [13]: 96.2%
viability, T/C [14]: 84.1%
viability, T/C (second compound 1 µM, first compound 0.000316 µM): 96.8%
viability, T/C (second compound 1 µM, first compound 0.001 µM): 86.7%
viability, T/C [37]: 91.8%
viability, T/C [38]: 88.9%
viability, T/C [19]: 93.4%
viability, T/C [20]: 85.7%
viability, T/C (second compound 3.16 µM, first compound 0.000316 µM): 53.9%
viability, T/C (second compound 3.16 µM, first compound 0.001 µM): 39.2%
viability, T/C [39]: 28.2%
viability, T/C [40]: 13.3%
viability, T/C [25]: 21%
viability, T/C [26]: 17.7%
